Experimental data published in article PMC12892976, “Alkylation-based optimization of antifungal FPPS inhibitors yields a potent, broad-spectrum lipophilic zoledronate derivative” (mBio, 2025).

Columns and labels:
Format in all cases: cell-based
Mucor circinelloides [1] = test: MIC broth microdilution (CLSI); details: Mucor circinelloides 80-14-240-5007
Protocol: (§1) Antifungal susceptibility was determined by broth microdilution according to the CLSI guidelines described in M27-Ed4 ([16]).

Rhizopus oryzae = test: MIC broth microdilution (CLSI); details: Rhizopus oryzae 04-14-364-1703
Protocol: as §1

Cryptococcus gattii = test: MIC broth microdilution (CLSI); details: Cryptococcus gattii PNG27
Protocol: as §1

Fusarium oxysporum = test: MIC broth microdilution (CLSI); details: Fusarium oxysporum 07-200-3012
Protocol: as §1

Lomentospora prolificans = test: MIC broth microdilution (CLSI); details: Lomentospora prolificans 80-16-101-2445
Protocol: as §1

Scedosporium apiospermum [2] = test: MIC broth microdilution (CLSI); details: Scedosporium apiospermum 04-16-022-2268
Protocol: as §1

Candida tropicalis = test: MIC broth microdilution (CLSI); details: Candida tropicalis M230640
Protocol: as §1

Candida dubliniensis = test: MIC broth microdilution (CLSI); details: Candida dubliniensis M230642
Protocol: as §1

Aspergillus udagawae = test: MIC broth microdilution (CLSI); details: Aspergillus udagawae 8G81
Protocol: as §1

Aspergillus felis = test: MIC broth microdilution (CLSI); details: Aspergillus felis IHE87256683D6
Protocol: as §1

[3] = system: Aspergillus frankstonensis; test: MIC broth microdilution (CLSI); details: Aspergillus frankstonensis DTO 341-F3
Protocol: as §1

Epidermophyton floccosum = test: MIC broth microdilution (CLSI); details: Epidermophyon floccosum R-113
Protocol: as §1

Paraphyton cookei = test: MIC broth microdilution (CLSI); details: Paraphyton cookei R-639
Protocol: as §1

Nannizzia nana = test: MIC broth microdilution (CLSI); details: Nannizzia nana R-133
Protocol: as §1

Mucor circinelloides [4] = test: checkerboard drug interaction (FICI, MICc);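 note: simplified diagonal checkerboard screen pairing antifungals with FPPS inhibitors, FICI calculated under the Loewe additivity model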
Protocol: (§2) Drug interactions between antifungals and FPPS inhibitors were investigated using a simplified checkerboard diagonal screening method ([45]). […] FICIs were determined according to the Loewe additivity model ([17]).

[5] = system: Cryptococcus bacillisporus; test: checkerboard drug interaction (FICI, MICc);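 note: interaction of antifungals with FPPS inhibitors assessed by a simplified diagonal checkerboard screen, with FICI computed under the Loewe additivity model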
Protocol: as §2

Cryptococcus tetragattii = test: checkerboard drug interaction (FICI, MICc);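 note: simplified diagonal checkerboard screen pairing antifungals with FPPS inhibitors, with FICI calculated under the Loewe additivity model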
Protocol: as §2

Fusarium solani = test: checkerboard drug interaction (FICI, MICc);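 note: simplified diagonal checkerboard screen pairing antifungals with FPPS inhibitors, FICI derived under the Loewe additivity model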
Protocol: as §2

Scedosporium apiospermum [6] = test: checkerboard drug interaction (FICI, MICc);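 note: simplified diagonal checkerboard screen of antifungal plus FPPS inhibitor pairs, with FICI computed under the Loewe additivity model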
Protocol: as §2

Pichia kudriavzevii = test: checkerboard drug interaction (FICI, MICc);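 note: antifungal plus FPPS inhibitor interactions tested in a simplified diagonal checkerboard screen, with FICI calculated under the Loewe additivity model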
Protocol: as §2

Candida parapsilosis = test: checkerboard drug interaction (FICI, MICc);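 note: simplified diagonal checkerboard screen pairing antifungals with FPPS inhibitors, with FICI computed under the Loewe additivity model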
Protocol: as §2

Aspergillus niger = test: checkerboard drug interaction (FICI, MICc);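 note: simplified diagonal checkerboard screen pairing antifungals with FPPS inhibitors, FICI calculated under the Loewe additivity model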
Protocol: as §2

Aspergillus terreus = test: checkerboard drug interaction (FICI, MICc);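 note: simplified diagonal checkerboard screen pairing antifungals with FPPS inhibitors, FICI derived by the Loewe additivity model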
Protocol: as §2

## CCCCCCCCCCn1cc[n+](CC(O)(P(=O)(O)O)P(=O)(O)O)c1 [10-ZOL, Decyl-zoledronate]
Mucor circinelloides [1]
  MIC / MEC: 1 mg/L
Rhizopus oryzae
  MIC / MEC: 4 mg/L
Cryptococcus gattii
  MIC / MEC: 0.5 mg/L
Fusarium oxysporum
  MIC / MEC: 8 mg/L
Lomentospora prolificans
  MIC / MEC: 2 mg/L
Scedosporium apiospermum [2]
  MIC / MEC: 4 mg/L
Candida tropicalis
  MIC / MEC: 2 mg/L
Candida dubliniensis
  MIC / MEC: 1 mg/L
Aspergillus udagawae
  MIC / MEC: 1 mg/L
Aspergillus felis
  MIC / MEC: 2 mg/L
[3]
  MIC / MEC: 1 mg/L
Epidermophyton floccosum
  MIC / MEC: 0.5 mg/L
Paraphyton cookei
  MIC / MEC: 0.5 mg/L
Nannizzia nana
  MIC / MEC: 1 mg/L
Mucor circinelloides [4]; 5FC:10-ZOL
  FICI: ≥4
Mucor circinelloides [4]; AMB:10-ZOL
  FICI: 2
Mucor circinelloides [4]; CAS:10-ZOL
  FICI: ≥4
Mucor circinelloides [4]; ITR:10-ZOL
  FICI: 1.5
Mucor circinelloides [4]; with 5FC
  bisphosphonate MICc: 1
Mucor circinelloides [4]; with AMB
  bisphosphonate MICc: 1
Mucor circinelloides [4]; with CAS
  bisphosphonate MICc: 0.5
Mucor circinelloides [4]; with FLC
  bisphosphonate MICc: 1
Mucor circinelloides [4]; with ITR
  bisphosphonate MICc: 1
Mucor circinelloides [4]; with KET
  bisphosphonate MICc: 0.125
Mucor circinelloides [4]; with VOR
  bisphosphonate MICc: 0.125
[5]; ITR:10-ZOL
  FICI: 0.61
[5]; with 5FC
  bisphosphonate MICc: 1
[5]; with AMB
  bisphosphonate MICc: 0.125
[5]; with CAS
  bisphosphonate MICc: 1
[5]; with FLC
  bisphosphonate MICc: 0.125
[5]; with ITR
  bisphosphonate MICc: 0.125
[5]; with KET
  bisphosphonate MICc: 0.125
[5]; with VOR
  bisphosphonate MICc: 0.125
Cryptococcus tetragattii; CAS:10-ZOL
  FICI: 2.13
Cryptococcus tetragattii; KET:10-ZOL
  FICI: 0.5
Cryptococcus tetragattii; VOR:10-ZOL
  FICI: 1.48
Cryptococcus tetragattii; with 5FC
  bisphosphonate MICc: 0.5
Cryptococcus tetragattii; with AMB
  bisphosphonate MICc: 0.063
Cryptococcus tetragattii; with CAS
  bisphosphonate MICc: 1
Cryptococcus tetragattii; with FLC
  bisphosphonate MICc: 0.125
Cryptococcus tetragattii; with ITR
  bisphosphonate MICc: 0.125
Cryptococcus tetragattii; with KET
  bisphosphonate MICc: 0.125
Cryptococcus tetragattii; with VOR
  bisphosphonate MICc: 0.5
Fusarium solani; 5FC:10-ZOL
  FICI: ≥4
Fusarium solani; CAS:10-ZOL
  FICI: 2
Fusarium solani; VOR:10-ZOL
  FICI: 0.53
Fusarium solani; with 5FC
  bisphosphonate MICc: 1
Fusarium solani; with AMB
  bisphosphonate MICc: 0.25
Fusarium solani; with CAS
  bisphosphonate MICc: 4
Fusarium solani; with FLC
  bisphosphonate MICc: 0.5
Fusarium solani; with ITR
  bisphosphonate MICc: 0.5
Fusarium solani; with KET
  bisphosphonate MICc: 2
Fusarium solani; with VOR
  bisphosphonate MICc: 0.125
Scedosporium apiospermum [6]; 5FC:10-ZOL
  FICI: 2.25
Scedosporium apiospermum [6]; KET:10-ZOL
  FICI: 0.53
Scedosporium apiospermum [6]; VOR:10-ZOL
  FICI: 0.53
Scedosporium apiospermum [6]; with 5FC
  bisphosphonate MICc: 1
Scedosporium apiospermum [6]; with AMB
  bisphosphonate MICc: 2
Scedosporium apiospermum [6]; with CAS
  bisphosphonate MICc: 1
Scedosporium apiospermum [6]; with FLC
  bisphosphonate MICc: 1
Scedosporium apiospermum [6]; with ITR
  bisphosphonate MICc: 0.25
Scedosporium apiospermum [6]; with KET
  bisphosphonate MICc: 0.125
Scedosporium apiospermum [6]; with VOR
  bisphosphonate MICc: 0.125
Pichia kudriavzevii; AMB:10-ZOL
  FICI: 1
Pichia kudriavzevii; KET:10-ZOL
  FICI: 1.5
Pichia kudriavzevii; VOR:10-ZOL
  FICI: 1.03
Pichia kudriavzevii; with 5FC
  bisphosphonate MICc: 1
Pichia kudriavzevii; with AMB
  bisphosphonate MICc: 2
Pichia kudriavzevii; with CAS
  bisphosphonate MICc: 0.5
Pichia kudriavzevii; with FLC
  bisphosphonate MICc: 0.5
Pichia kudriavzevii; with ITR
  bisphosphonate MICc: 0.25
Pichia kudriavzevii; with KET
  bisphosphonate MICc: 2
Pichia kudriavzevii; with VOR
  bisphosphonate MICc: 0.125
Candida parapsilosis; CAS:10-ZOL
  FICI: 0.5
Candida parapsilosis; with 5FC
  bisphosphonate MICc: 1
Candida parapsilosis; with AMB
  bisphosphonate MICc: 0.125
Candida parapsilosis; with CAS
  bisphosphonate MICc: 0.25
Candida parapsilosis; with FLC
  bisphosphonate MICc: 0.25
Candida parapsilosis; with ITR
  bisphosphonate MICc: 0.125
Candida parapsilosis; with KET
  bisphosphonate MICc: 0.25
Candida parapsilosis; with VOR
  bisphosphonate MICc: 0.25
Aspergillus niger; 5FC:10-ZOL
  FICI: ≥4
Aspergillus niger; AMB:10-ZOL
  FICI: 2.17
Aspergillus niger; CAS:10-ZOL
  FICI: 1
Aspergillus niger; with 5FC
  bisphosphonate MICc: 1
Aspergillus niger; with AMB
  bisphosphonate MICc: 1
Aspergillus niger; with CAS
  bisphosphonate MICc: 2
Aspergillus niger; with FLC
  bisphosphonate MICc: 0.5
Aspergillus niger; with ITR
  bisphosphonate MICc: 1
Aspergillus niger; with KET
  bisphosphonate MICc: 2
Aspergillus niger; with VOR
  bisphosphonate MICc: 0.5
Aspergillus terreus; 5FC:10-ZOL
  FICI: 1.5
Aspergillus terreus; CAS:10-ZOL
  FICI: 3
Aspergillus terreus; FLC:10-ZOL
  FICI: 0.53
Aspergillus terreus; ITR:10-ZOL
  FICI: 1
Aspergillus terreus; KET:10-ZOL
  FICI: 1.5
Aspergillus terreus; VOR:10-ZOL
  FICI: 1.5
Aspergillus terreus; with 5FC
  bisphosphonate MICc: 0.25
Aspergillus terreus; with AMB
  bisphosphonate MICc: 0.5
Aspergillus terreus; with CAS
  bisphosphonate MICc: 1
Aspergillus terreus; with FLC
  bisphosphonate MICc: 0.25
Aspergillus terreus; with ITR
  bisphosphonate MICc: 0.25
Aspergillus terreus; with KET
  bisphosphonate MICc: 0.25
